Results published in PubChem BioAssay (NCI).
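Five compound concentrations were applied to cells in 96-well plates for 48 hours; endpoints were derived by simple linear interpolation of the resulting dose-response curve. GI50 is the concentration that inhibits growth by half. TGI: concentration producing complete growth inhibition.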

Key:
Experiment in all cases: DTP human tumour cell line panel, 48 h
786-0 renal = system: 786-0 renal
A498 renal = system: A498 renal
A549 NSCLC = system: A549 NSCLC
ACHN renal = system: ACHN renal
BT-549 breast = system: BT-549 breast
CAKI-1 renal = system: CAKI-1 renal
CCRF-CEM leukemia = system: CCRF-CEM leukemia
COLO 205 colon = system: COLO 205 colon
DU-145 prostate = system: DU-145 prostate
EKVX NSCLC = system: EKVX NSCLC
HCC-2998 colon = system: HCC-2998 colon
HCT-116 colon = system: HCT-116 colon
HCT-15 colon = system: HCT-15 colon
HL-60(TB) leukemia = system: HL-60(TB) leukemia
HOP-62 NSCLC = system: HOP-62 NSCLC
HOP-92 NSCLC = system: HOP-92 NSCLC
HS 578T breast = system: HS 578T breast
HT29 colon = system: HT29 colon
IGROV1 ovarian = system: IGROV1 ovarian
K-562 leukemia = system: K-562 leukemia
KM12 colon = system: KM12 colon
LOX IMVI melanoma = system: LOX IMVI melanoma
M14 melanoma = system: M14 melanoma
MALME-3M melanoma = system: MALME-3M melanoma
MCF7 breast = system: MCF7 breast
MDA-MB-231 breast = system: MDA-MB-231 breast
MDA-MB-435 = system: MDA-MB-435
MOLT-4 leukemia = system: MOLT-4 leukemia
NCI-H226 lung = system: NCI-H226 lung
NCI-H23 lung = system: NCI-H23 lung
NCI-H460 lung = system: NCI-H460 lung
NCI-H522 lung = system: NCI-H522 lung
NCI/ADR-RES ovarian = system: NCI/ADR-RES ovarian
OVCAR-3 ovarian = system: OVCAR-3 ovarian
OVCAR-4 ovarian = system: OVCAR-4 ovarian
OVCAR-5 ovarian = system: OVCAR-5 ovarian
OVCAR-8 ovarian = system: OVCAR-8 ovarian
PC-3 prostate = system: PC-3 prostate
RPMI-8226 leukemia = system: RPMI-8226 leukemia
RXF 393 renal = system: RXF 393 renal
SF-268 CNS = system: SF-268 CNS
SF-295 CNS = system: SF-295 CNS
SF-539 CNS = system: SF-539 CNS
SK-MEL-2 melanoma = system: SK-MEL-2 melanoma
SK-MEL-28 melanoma = system: SK-MEL-28 melanoma
SK-MEL-5 melanoma = system: SK-MEL-5 melanoma
SK-OV-3 ovarian = system: SK-OV-3 ovarian
SN12C renal = system: SN12C renal
SNB-19 CNS = system: SNB-19 CNS
SNB-75 CNS = system: SNB-75 CNS
SR leukemia = system: SR leukemia
SW-620 colon = system: SW-620 colon
T-47D breast = system: T-47D breast
TK-10 renal = system: TK-10 renal
U251 CNS = system: U251 CNS
UACC-257 melanoma = system: UACC-257 melanoma
UACC-62 melanoma = system: UACC-62 melanoma
UO-31 renal = system: UO-31 renal

COc1ccc(C2CC(c3cc(Cl)c(C)cc3O)=NN2c2ccc(S(N)(=O)=O)cc2)cc1OC (stereo unspecified)
GI50 (786-0 renal): 2.37 µM
TGI (786-0 renal): 5.04 µM
GI50 (A498 renal): 3.98 µM
TGI (A498 renal): 24.7 µM
GI50 (A549 NSCLC): 3.54 µM
TGI (A549 NSCLC): 19.7 µM
GI50 (ACHN renal): 3.15 µM
TGI (ACHN renal): 12.2 µM
GI50 (BT-549 breast): 3.03 µM
TGI (BT-549 breast): 13.4 µM
GI50 (CAKI-1 renal): 2.78 µM
TGI (CAKI-1 renal): > 100 µM
GI50 (CCRF-CEM leukemia): 5.35 µM
TGI (CCRF-CEM leukemia): > 100 µM
GI50 (COLO 205 colon): 1.93 µM
TGI (COLO 205 colon): 3.41 µM
GI50 (DU-145 prostate): 4.49 µM
TGI (DU-145 prostate): 21.7 µM
GI50 (EKVX NSCLC): 4.15 µM
TGI (EKVX NSCLC): > 100 µM
GI50 (HCC-2998 colon): 2.72 µM
TGI (HCC-2998 colon): 7.25 µM
GI50 (HCT-116 colon): 1.72 µM
TGI (HCT-116 colon): 4.36 µM
GI50 (HCT-15 colon): 3.32 µM
TGI (HCT-15 colon): 20.2 µM
GI50 (HL-60(TB) leukemia): 3.42 µM
TGI (HL-60(TB) leukemia): > 100 µM
GI50 (HOP-62 NSCLC): 3.92 µM
TGI (HOP-62 NSCLC): 14.1 µM
GI50 (HOP-92 NSCLC): 1.81 µM
TGI (HOP-92 NSCLC): 7.42 µM
GI50 (HS 578T breast): 3.29 µM
TGI (HS 578T breast): 34.3 µM
GI50 (HT29 colon): 2.24 µM
TGI (HT29 colon): 6.48 µM
GI50 (IGROV1 ovarian): 2.34 µM
TGI (IGROV1 ovarian): 5.46 µM
GI50 (K-562 leukemia): 3.18 µM
TGI (K-562 leukemia): > 100 µM
GI50 (KM12 colon): 3.07 µM
TGI (KM12 colon): 8.77 µM
GI50 (LOX IMVI melanoma): 3.35 µM
TGI (LOX IMVI melanoma): 11 µM
GI50 (M14 melanoma): 2.61 µM
TGI (M14 melanoma): 7.2 µM
GI50 (MALME-3M melanoma): 3.65 µM
TGI (MALME-3M melanoma): 24.6 µM
GI50 (MCF7 breast): 3.07 µM
TGI (MCF7 breast): 13.6 µM
GI50 (MDA-MB-231 breast): 3.81 µM
TGI (MDA-MB-231 breast): 12.5 µM
GI50 (MDA-MB-435): 3.97 µM
TGI (MDA-MB-435): 24 µM
GI50 (MOLT-4 leukemia): 5.29 µM
TGI (MOLT-4 leukemia): > 100 µM
GI50 (NCI-H226 lung): 5.62 µM
TGI (NCI-H226 lung): 23.1 µM
GI50 (NCI-H23 lung): 3.11 µM
TGI (NCI-H23 lung): 13.6 µM
GI50 (NCI-H460 lung): 2.5 µM
TGI (NCI-H460 lung): 5.85 µM
GI50 (NCI-H522 lung): 2.95 µM
TGI (NCI-H522 lung): 9.61 µM
GI50 (NCI/ADR-RES ovarian): 3.39 µM
TGI (NCI/ADR-RES ovarian): 14.1 µM
GI50 (OVCAR-3 ovarian): 3.37 µM
TGI (OVCAR-3 ovarian): 9.8 µM
GI50 (OVCAR-4 ovarian): 4.18 µM
TGI (OVCAR-4 ovarian): > 100 µM
GI50 (OVCAR-5 ovarian): 2.25 µM
TGI (OVCAR-5 ovarian): 6.36 µM
GI50 (OVCAR-8 ovarian): 3.39 µM
TGI (OVCAR-8 ovarian): 17.9 µM
GI50 (PC-3 prostate): 2.61 µM
TGI (PC-3 prostate): 13.7 µM
GI50 (RPMI-8226 leukemia): 4.1 µM
TGI (RPMI-8226 leukemia): > 100 µM
GI50 (RXF 393 renal): 2.88 µM
TGI (RXF 393 renal): 7.52 µM
GI50 (SF-268 CNS): 4.74 µM
TGI (SF-268 CNS): > 100 µM
GI50 (SF-295 CNS): 2.7 µM
TGI (SF-295 CNS): 6.24 µM
GI50 (SF-539 CNS): 2.1 µM
TGI (SF-539 CNS): 4.75 µM
GI50 (SK-MEL-2 melanoma): 5.87 µM
TGI (SK-MEL-2 melanoma): 32.7 µM
GI50 (SK-MEL-28 melanoma): 4.29 µM
TGI (SK-MEL-28 melanoma): 17.7 µM
GI50 (SK-MEL-5 melanoma): 4.28 µM
TGI (SK-MEL-5 melanoma): 15.2 µM
GI50 (SK-OV-3 ovarian): 4.51 µM
TGI (SK-OV-3 ovarian): 38.3 µM
GI50 (SN12C renal): 3.7 µM
TGI (SN12C renal): 30 µM
GI50 (SNB-19 CNS): 5.53 µM
TGI (SNB-19 CNS): 89.3 µM
GI50 (SNB-75 CNS): 2.7 µM
TGI (SNB-75 CNS): 97.2 µM
GI50 (SR leukemia): 2.82 µM
TGI (SR leukemia): > 100 µM
GI50 (SW-620 colon): 4.08 µM
TGI (SW-620 colon): 26.6 µM
GI50 (T-47D breast): 3.1 µM
TGI (T-47D breast): 13.3 µM
GI50 (TK-10 renal): 3.97 µM
TGI (TK-10 renal): 18.4 µM
GI50 (U251 CNS): 3.71 µM
TGI (U251 CNS): 14 µM
GI50 (UACC-257 melanoma): 4.22 µM
TGI (UACC-257 melanoma): 19.7 µM
GI50 (UACC-62 melanoma): 3.13 µM
TGI (UACC-62 melanoma): 12.9 µM
GI50 (UO-31 renal): 3.3 µM
TGI (UO-31 renal): > 100 µM
